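How tested: cells in 96-well plates exposed to compound for 48 hours at five concentrations. GI50: concentration for 50% inhibition of growth. TGI: concentration producing complete growth inhibition.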
What was measured:
Assay in all cases: inhibition of tumour cell growth, NCI panel, 48 h
SF-539 CNS = system: SF-539 CNS
MDA-MB-435 = system: MDA-MB-435
HOP-62 NSCLC = system: HOP-62 NSCLC
OVCAR-3 ovarian = system: OVCAR-3 ovarian
K-562 leukemia = system: K-562 leukemia
NCI-H226 lung = system: NCI-H226 lung
SK-OV-3 ovarian = system: SK-OV-3 ovarian
HCT-15 colon = system: HCT-15 colon
SF-268 CNS = system: SF-268 CNS
IGROV1 ovarian = system: IGROV1 ovarian

Row | Compound | TGI (SF-539 CNS) [µM] | TGI (MDA-MB-435) [µM] | TGI (HOP-62 NSCLC) [µM] | TGI (OVCAR-3 ovarian) [µM] | TGI (K-562 leukemia) [µM] | TGI (NCI-H226 lung) [µM] | TGI (SK-OV-3 ovarian) [µM] | TGI (HCT-15 colon) [µM] | TGI (SF-268 CNS) [µM] | TGI (IGROV1 ovarian) [µM] | GI50 (SF-539 CNS) [µM] | GI50 (MDA-MB-435) [µM] | GI50 (HOP-62 NSCLC) [µM] | GI50 (OVCAR-3 ovarian) [µM] | GI50 (K-562 leukemia) [µM] | GI50 (NCI-H226 lung) [µM] | GI50 (SK-OV-3 ovarian) [µM] | GI50 (HCT-15 colon) [µM] | GI50 (SF-268 CNS) [µM] | GI50 (IGROV1 ovarian) [µM]
1 | CCc1nc(N)nc(N)c1-c1ccc(N2CCNCC2)c([N+](=O)[O-])c1 | > 100 | > 100 | > 91.8 | > 100 | > 90.2 | > 100 | > 100 | > 100 | > 37.5 | > 100 | – | – | – | – | – | – | – | – | – | –
2 | COc1cc2c3c(n(CCCNCCCCN)c(=O)c2cc1OC)-c1cc2c(cc1C3=O)OCO2 | 2.74 | 20.4 | 32.5 | 14.1 | > 100 | 7.44 | > 46.6 | > 54.4 | 10.3 | > 100 | 0.191 | 6.11 | 0.836 | 2.77 | 4.1 | 1.6 | 9.15 | 17.5 | 3.1 | > 21.2
3 | Cn1ccc(S(=O)(=O)N2CCC[C@H](Nc3nccc(-c4c(-c5cccc(O)c5)nc5occn45)n3)C2)n1 | 59.2 | 29.3 | > 100 | 51.9 | > 100 | > 84.8 | 49.6 | > 93.8 | > 100 | 51.9 | 17 | 0.329 | 31 | 13.5 | 13.9 | 11.5 | 5.71 | 22.3 | 21.4 | 10.9
4 | N=C1C(c2nc3ccccc3c(=O)[nH]2)=C(O)CN1c1cccc(Cl)c1 | 24.8 | 3.8 | > 100 | 5.06 | > 100 | > 100 | > 100 | > 100 | > 100 | > 100 | 3.51 | 0.948 | 4.7 | 2.15 | 1.39 | > 100 | 5.55 | 1.51 | 8.78 | 37.6
5 | Oc1ccc(/C=N/NC(=S)Nc2ccccc2)nc1 | 6.19 | > 100 | 7.29 | > 100 | > 100 | 6.83 | 32.6 | > 100 | > 100 | > 100 | 0.851 | 2.19 | 0.766 | 0.405 | 3.72 | 2.33 | 0.748 | 0.407 | 0.969 | 3.68
6 | CCOC(=O)C(Cc1ccccc1)n1c(O)c(/C=N/c2ncc(Cc3ccc(Cl)cc3Cl)s2)sc1=S (centres undefined) | 6.95 | > 100 | 8.12 | 9.96 | > 100 | > 100 | 11.8 | > 100 | 64.8 | 71.5 | 2.58 | 3.38 | 2.69 | 2.84 | 2.03 | 3.29 | 2.38 | 0.548 | 2.42 | 3.73
7 | COC(=O)C1C(=O)C(C(=O)OC)C2CCC1N2C (centres undefined) | > 100 | > 79.3 | > 100 | > 72.1 | > 100 | > 94.9 | > 100 | > 100 | > 100 | > 100 | – | – | – | – | – | – | – | – | – | –
8 | Cc1ncnc2c1ccn2[C@@H]1C[C@H](Oc2cc(C(F)F)c(F)c3c2CNCC3)[C@@H](O)[C@H]1O | > 100 | > 100 | > 100 | > 100 | > 100 | > 100 | > 100 | > 100 | > 100 | > 100 | > 100 | > 100 | > 100 | > 100 | > 100 | > 100 | > 100 | > 100 | > 100 | > 100
9 | CN(C)Cc1ccc(O)c(CN(C)C)n1 | > 100 | > 100 | > 100 | > 100 | > 100 | > 100 | > 100 | > 100 | > 100 | > 100 | – | – | – | – | – | – | – | – | – | –
10 | CCNCCS(=O)(=O)NC[C@@]1(c2ccccc2)SC(NC(=O)C(C)(C)C)=NN1C(=O)C(C)(C)C | 0.768 | < 0.01 | > 100 | > 100 | > 100 | > 100 | > 100 | > 100 | > 100 | > 100 | < 0.01 | < 0.01 | 0.0353 | < 0.01 | < 0.01 | > 100 | < 0.01 | 0.399 | < 0.01 | 2.9
11 | Cc1c(Br)c(Br)c2c3c1nc(N1CCNCC1)n3CCC2 | 3.09 | 3.22 | 4.87 | 3.01 | 5.49 | 5.31 | 13.1 | 3.33 | 4.78 | 3.12 | 1.64 | 1.73 | 1.87 | 1.56 | 2.14 | 1.95 | 3.59 | 1.69 | 2.12 | 1.41
12 | Cn1cc(Nc2nccc(-c3ccc4c(c3)CN(C3COC3)CC[C@H]4NC(=O)c3cn(C(C)(C)C)nn3)n2)cn1 | > 100 | > 100 | > 100 | > 100 | > 100 | > 100 | > 100 | > 100 | > 100 | > 100 | 99.1 | 42.3 | > 100 | > 100 | 28 | 38.9 | 62.5 | > 100 | > 100 | 32
13 | CN1C(=O)[C@@H](CC2CCCC2)N(C2CCCC2)c2nc(Nc3cc(Cl)c(O)c(Cl)c3)ncc21 | > 100 | > 100 | > 100 | 73.9 | > 100 | > 100 | 75.9 | 56.2 | > 100 | > 100 | 19.8 | 27.8 | 27.9 | 21.8 | 14.6 | 25 | 17.1 | 14.6 | 33 | 32.9
14 | CC(C)(Oc1cccc(N2CCC[C@@H](C(=O)N(Cc3ccc(-c4cn[nH]c4)cc3)C3CC3)C2)c1)C(=O)N1CCNCC1 | 24.2 | 27.2 | 28.5 | 26 | 18.4 | 21 | 33.6 | 28.9 | 24.7 | 26.8 | 11.4 | 13.8 | 13.3 | 12.4 | 3.5 | 5.43 | 16.9 | 14.6 | 10.7 | 12.3
15 | C/C(=N\O)C1CC(CC(=O)O)C1(C)C (centres undefined) | > 100 | > 100 | > 100 | > 100 | > 100 | > 100 | > 100 | > 100 | > 100 | > 100 | – | – | – | – | – | – | – | – | – | –
16 | CCN(CC)CCOc1ccc(/C(=C(\C)Cc2ccc(OC)cc2)c2ccc(O)cc2)cc1 | 3.24 | 3.15 | 3.81 | 3.21 | 3.99 | 4.26 | 7.38 | 3 | 4.33 | 10.3 | 1.75 | 1.68 | 1.89 | 1.68 | 1.37 | 1.86 | 2.48 | 1.49 | 1.86 | 2.98
17 | O=C(Nc1nc2ccc(OC(F)(F)F)cc2s1)c1ccc(F)cc1 | 6.95 | > 100 | 26.9 | 7.2 | > 100 | > 100 | 8.44 | 10.5 | > 100 | > 100 | 2.26 | 2.98 | 3.81 | 2.22 | 3.58 | 2.81 | 2.6 | 3.04 | 3.71 | 3.89
18 | CC1(C)CCC2(C(=O)O)C(O)CC3(C)C(=CCC4C5(C)CCC(OC6OCC(O)C(O)C6OC6OCC(O)C(O)C6OC6OCC(O)C(OC7OC(CO)C(O)C(O)C7O)C6O)C(C)(C)C5CCC43C)C2C1 (centres undefined) | > 100 | 93 | > 100 | > 100 | 70.6 | > 100 | 40.2 | > 100 | 64 | > 100 | – | – | – | – | – | – | – | – | – | –
19 | O=C(NNC1=NS(=O)(=O)c2ccccc2N1c1ccccc1)c1cnccn1 | > 100 | > 100 | > 100 | > 100 | > 100 | > 100 | > 100 | > 100 | > 100 | > 100 | > 100 | > 100 | > 100 | > 100 | > 100 | > 100 | > 100 | 52.2 | > 100 | > 100
20 | CC(=O)NC(CCc1ccc(Cl)c(Cl)c1)c1cccc(O)c(=O)c1 (centres undefined) | 5.35 | 18.9 | 12.2 | 14.7 | 29.1 | 14.2 | 17.4 | 19.6 | 14.7 | 3.33 | 0.514 | 1.07 | 0.393 | 0.358 | 0.653 | 0.633 | 1.43 | 0.131 | 0.517 | 0.539
21 | CC[C@]1(O)CC2CN(CCc3c([nH]c4ccccc34)C(C(=O)OC)(c3cc4c(cc3OC)N(C=O)[C@H]3[C@@](O)(C(=O)OC)[C@H](OC(C)=O)[C@]5(CC)[C@@H]6C[C@@H]6CN6CC[C@]43[C@@H]65)C2)C1 (some centres undefined) | < 0.00325 | < 0.00325 | > 13.7 | < 0.00325 | 4.84 | > 16.3 | < 0.00325 | > 32.5 | 7.39 | > 18 | < 0.00325 | < 0.00325 | < 0.00325 | < 0.00325 | < 0.00325 | 0.245 | < 0.00325 | 0.0365 | < 0.00325 | < 0.00325
22 | Cc1cc2c3c(nc4ccccc42)C(=O)c2cccnc2-c3n1 | 2.21 | 0.332 | 2.23 | 0.0263 | 0.345 | 3.26 | 1.07 | 0.162 | > 19.9 | 0.383 | 0.495 | 0.162 | 0.316 | – | 0.109 | 0.942 | 0.25 | 0.015 | 0.786 | 0.0658
23 | O=C(O)C1CC[N-]CC1.O=C(O)C1CC[N-]CC1.[NH2-].[NH2-].[Pt+4] | > 100 | > 100 | > 100 | > 100 | > 100 | > 100 | > 100 | > 100 | > 100 | > 100 | > 100 | > 100 | > 100 | > 100 | > 100 | > 100 | > 100 | > 100 | > 100 | > 100
24 | CN1CCC(=C(c2ccc(Cl)cc2)c2ccccn2)CC1 | > 100 | > 100 | > 100 | > 100 | > 100 | > 100 | > 100 | > 100 | > 100 | > 100 | 85.1 | 40.7 | > 100 | > 100 | 74.7 | 90.2 | 61.9 | > 100 | > 100 | 78.7
25 | COc1cccc(N2C(=N)/C(=C3\Nc4ccccc4S3)CC2=O)c1 | > 100 | > 100 | 28.1 | > 100 | > 100 | > 100 | > 100 | > 100 | > 100 | > 100 | 5.4 | > 100 | 2.73 | 14.8 | 3.92 | 38.3 | 1.77 | 0.815 | 5.22 | 7.58
26 | N#CC(Cl)CS(=O)(=O)c1ccccc1 (centres undefined) | 28.5 | 32.1 | > 59.1 | 7.17 | 4.85 | 46.7 | 33.6 | 5.38 | 24.3 | 38 | – | – | – | – | – | – | – | – | – | –

— PubChem BioAssay (NCI)
